Measured values as given in patent US9963433B2, “Anticancer drugs including the chemical structures of an androgen receptor ligand and a histone deacetylase inhibitor” (Wayne State University, priority 2016, dated 2018).

Experiments:
p21 mRNA in LNCaP cells = test: p21 mRNA induction in LNCaP cells; details: 10 μM, 48 h, FIG. 5A
[1] = test system: 55 KDa polypeptide (putative Hsp90 fragment); test: Western blot of acetylated lysine in C4-2 cells; details: 24 h, acetylated lysine antibody, FIG. 4C
Procedure: Cells were then harvested for western blot analysis using antibody to AR (4A), HSP90 (4B), Acetyl-Lysine (4C) or GAPDH (loading control). ImageJ software was used to determine the intensities of the bands relative to the vehicle control for each protein. The values were then divided by the values for GAPDH within the same samples.
Western Blot Analysis. Cells were washed once with phosphate buffered saline (PBS) and then lysed with RIPA buffer (150 mM NaCl, 1% Nonidet P-40, 0.5% sodium deoxycholate, 0.1% SDS, 50 mM Tris of pH 8.0) containing a protease inhibitor cocktail (Pierce, Thermo Fisher Scientific). The cell lysates were then incubated on ice for 40 minutes. Total protein concentrations were estimated using the Bradford Assay (Bio-Rad). Protein samples (10-40 ug) were heated at 95° C. for 5 minutes and resolved by electrophoresis on 8% polyacrylamide-SDS gels and electrophoretically transferred to PVDF membranes (Millipore, Billerica, Mass.). The membranes were then probed overnight at 4° C. with the appropriate primary antibody followed by the appropriate horseradish peroxidase-conjugated secondary antibody.

[2] = test system: KLK3 mRNA (AR target gene) in C4-2 cells; test: Inhibition of R1881 activation of KLK3 mRNA in C4-2 cells; type: cell-based; details: hormone depleted 96 h, R1881 1 nM, compound 1-10 μM, 48 h, FIG. 3A
Procedure: Cell Culture and Reagents. LNCaP and 22Rv1 cell lines were from American Type Culture Collection (Manassas, Va.). C4-2 cells were kindly provided by Dr. Edwin Sanchez (University of Toledo). […] R1881 was kindly provided by Dr. Stephan Patrick (Karmanos Cancer Institute). All experiments were conducted using phenol-red free growth media.
(§1) RNA isolation, Reverse Transcription, and Real Time PCR. Total RNA was isolated from cells using the RNeasy Mini Kit (Qiagen). Reverse transcription PCR was then performed using 500 ng of total RNA with random primers and using the high-capacity complementary DNA Archive kit (Applied Biosystems). The complementary DNA from this reaction was measured using quantitative real time PCR using the StepONE Plus Real Time PCR system (Life Technologies Corporation, Carlsbad, Calif.). All reactions were performed in triplicate and normalized to glyceraldehyde-3-phosphate-dehydrogenase values in the same samples.

DLC1 mRNA in C4-2 cells = test: In situ HDACi activity: DLC1 mRNA in C4-2 cells; type: cell-based; details: 48 h, normalized to GAPDH mRNA, FIG. 2F
Procedure: FIGS. 2A-2F show measurement of intrinsic and in situ HDACi activities. […]. IC50 values were calculated from nonlinear regression plots using GraphPad Prism5 software. (2B) Enz, 1002 and 3-52 were tested against HeLa cell nuclear extract at 10 μM and 25 μM and TSA (1 μM) was used as positive control. […] Recombinant HDAC6 was incubated with each drug at the indicated concentrations. IC50 values were calculated from nonlinear regression plots using GraphPad Prism5 software. (2D) Enz, 1002 and 3-52 were tested against recombinant HDAC6 at 10 μM and 25 μM and TSA (1 μM) was used as positive control. […]
Cell Culture and Reagents. LNCaP and 22Rv1 cell lines were from American Type Culture Collection (Manassas, Va.). C4-2 cells were kindly provided by Dr. Edwin Sanchez (University of Toledo). LNCaP and C4-2 cells were routinely grown at 37° C. in 5% CO2 in RPMI 1640 medium supplemented with 10% FBS (Invitrogen); 100 units/ml penicillin, 100 μg/ml streptomycin, 2 mM L-glutamine mixture (Invitrogen); and sodium pyruvate (1 mM) (Invitrogen). 22Rv1 cells were grown in RPMI 1640 medium supplemented with 10% FBS (Invitrogen); 100 units/ml penicillin, 100 μg/ml streptomycin, 2 mM L-glutamine mixture (Invitrogen). Affinity-purified rabbit anti-human antibody to AR (sc-816) and mouse anti-human antibody to GAPDH (sc-47724) were purchased from Santa Cruz Biotechnology (Santa Cruz, Calif.). Affinity-purified rabbit anti-human antibody to Hsp90 (C45G5) #4877 and rabbit anti-human antibody to acetylated lysine #9441 were purchased from Cell Signaling Technology. R1881 was kindly provided by Dr. Stephan Patrick (Karmanos Cancer Institute). All experiments were conducted using phenol-red free growth media. For hormone depletion, cells were grown in phenol-red free RPMI 1640 medium supplemented with 10% charcoal stripped FBS (Sigma-Aldrich) which was heat inactivated at 56° C. for thirty minutes, and a mixture of 100 units/ml penicillin, 100 μg/ml streptomycin and 2 mM L-glutamine for 96 h.
as §1, with “samples. All primers and Taqman probes were purchased from the applied Biosystems inventory (Invitrogen) (Patki et al., 2015).” for “samples.”
. […]

[3] = test system: HDACs from Hela cell nuclear extract; type: biochemical; details: for IC50: cell-free, FIG. 2A, read-out: IC50, inhibition of HDACs enriched in the Hela nuclear extract
Procedure: FIGS. 2A-2F show measurement of intrinsic and in situ HDACi activities. […] IC50 values were calculated from nonlinear regression plots using GraphPad Prism5 software. […] Recombinant HDAC6 was incubated with each drug at the indicated concentrations. IC50 values were calculated from nonlinear regression plots using GraphPad Prism5 software.
HDAC activity assay. In vitro HDAC inhibition was measured by using the HDAC fluorimetric assay/drug discovery Kit (Enzo Life Sciences, BML-AK500) and the HDAC6 fluorometric drug discovery kit (Enzo Life Sciences, BML-AK516) following the manufacturer's protocols and instructions. IC50 values were calculated from nonlinear […] plots using GraphPad Prism5 software.
HDAC1 and HDAC2 are enriched in nuclear extracts whereas HDAC6 is a cytosolic enzyme that is the principal modulator of the acetylation status of Hsp90. […] Again, TSA served as the positive control in FIG. 2D.

Structure (SMILES) | p21 mRNA expression (p21 mRNA in LNCaP cells) | hyper-acetylation of a 55 KDa polypeptide [1] | inhibition of activation of KLK3 by R1881 [2] | DLC1 mRNA expression (DLC1 mRNA in C4-2 cells) | inhibition of nuclear HDAC activity ([3]; HeLa cell nuclear extract, tested at 10 μM and 25 μM, FIG. 2B) | IC50 [3]
CNC(=O)c1ccc(N2C(=S)N(c3ccc(C#N)c(C(F)(F)F)c3)C(=O)C2(C)C)cc1F [Enz, Enzalutamide, reference compound] | had no effect | not | progressive inhibition at higher doses | had no effect | lacked any HDACi activity | 
CC1(C)C(=O)N(c2ccc(C#N)c(C(F)(F)F)c2)C(=S)N1c1ccc(C(=O)NCCCCCCC(=O)NO)c(F)c1 [Compound 2-75, 4-(3-(4-cyano-3-(trifluoromethyl)phenyl)-5,5-dimethyl-4-oxo-2-thioxoimidazolidin-1-yl)-2-fluoro-N-(7-(hydroxyamino)-7-oxoheptyl)benzamide] | induced p21 to a greater extent than SAHA | hyper-acetylation of a 55 KDa polypeptide | better inhibitors of gene activation by androgen compared with either Enz or SAHA | poor inducers of DLC1 mRNA compared with SAHA |  | 1.08 µM
CC1(C)C(=O)N(c2ccc(C#N)c(C(F)(F)F)c2)C(=S)N1c1ccc(/C=C/C(=O)NO)c(F)c1 [Compound 1005, (E)-3-(4-(3-(4-cyano-3-(trifluoromethyl)phenyl)-5,5-dimethyl-4-oxo-2-thioxoimidazolidin-1-yl)-2-fluorophenyl)-N-hydroxyacrylamide] | induced p21 to a greater extent than SAHA | hyper-acetylation of a 55 KDa polypeptide | better inhibitors of gene activation by androgen compared with either Enz or SAHA | poor inducers of DLC1 mRNA compared with SAHA |  | 2.41 µM
